This is an account of results in patent US10227347B2, “Purinyl-N-hydroxyl pyrimidine formamide derivative, preparation methods and uses thereof” (Guizhou Bailing Group Pharmaceutical CO., LTD., priority 2015, dated 2019).

One assay concerns the target T1, HDAC4 (Homo sapiens, UniProt P56524).
T1 construct: purchased BPS Bioscience 50004
The assay can be described thus: HDAC4 enzyme inhibition (Lys-Ac-AMC). The class given is biochemical. The conditions noted are these: Table 4, graded. As to the method: (§1) Determining the inhibition capability of HDAC through the substrate method of fluorophore coupled acetylized peptide fragment (Lys-Ac-AMC). HDAC2-11 proteins of subtypes are purchased from BPS Bioscience Company with the Art. […] The reaction buffer system is a modified Tris buffer (pH7.0). The small molecule compounds are prepared and dissolved with 100% DMSO. […] Adding the compound into the reaction wells of the 384 well plate at the designed concentration, then adding 15 μL HDAC enzyme solution into the reaction wells (adding 15 μL blank buffer into the control well 0) for incubation under ambient temperature for 15 min; then adding 10 μL substrate solution to start reaction.
(§2) Analyzing the result data with the software GraphPad Prism and calculating the value of IC50 as per the formula: Y=background data+(top data−background data)/(1+10^((Log IC50−X)*rate of curve)). Where, Y refers to the inhibition ratio (%) and X refers to the compound concentration.

Assay [1] has as its system HBL-1 cells (B-cell lymphoma). In words: Proliferation inhibition, HBL-1 (cck-8). The conditions noted are these: Homo sapiens, HBL1; 96 h incubation. The class given is cell-based. An excerpt:
(§3) Calculating the value of IC50 as per the formula: Y=background data+(top data−background data)/(1+10^((Log IC50−X)*rate of curve)). Where, Y refers to the inhibition ratio (%) and X refers to the compound concentration.

In assay [2] the test system is U266 cells (multiple myeloma). In words: Proliferation inhibition, U266 (cck-8). It counts as cell-based. The conditions noted are these: Homo sapiens, U-266; 96 h incubation.
Excerpt: as §3

The next assay addresses T2, PI3Kδ (Homo sapiens, UniProt O00329).
T2 construct: purchased Millipore 14-604-K
In words: PI3Kδ activity inhibition (Kinase-Glo). It counts as biochemical. The method in brief:
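Kinase-Glo luminescence read-out of remaining ATP after PI3K reaction with PIP2 and ATP substrates in 50 mM HEPES pH 7.5, 3 mM MgCl2, 1 mM EGTA, 100 mM NaCl, 0.03% CHAPS, 2 mM DTT. Incubated at ambient temperature, 1 h for PI3Kα, 2 h for PI3Kδ. IC50 from four-parameter fit of % inhibition versus concentration.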
For orientation: Kinase-Glo reads ATP consumption through a luciferase reaction.

Assay [3] relates to MV4-11 cells (acute myeloid leukemia). In words: Cell proliferation inhibition, MV4-11 (cck-8). Conditions: Homo sapiens. The class given is cell-based. A digest of the protocol: (§4)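 Cells seeded at 2000-3000/well; adherent lines dosed after attachment, then 96 h incubation with compound. Viability read by MTT for solid-tumour lines (HCT116, A2780s) and CCK-8 for MV4-11; IC50 from four-parameter logistic fit of inhibition ratio versus concentration.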

In assay [4] the test system is A2780s cells (ovarian cancer). In words: Cell proliferation inhibition, A2780s (MTT). Conditions: Homo sapiens. The class given is cell-based. The method in brief: as §4
In a further assay the target is T3, HDAC5 (Homo sapiens, UniProt Q9UQL6).
T3 construct: purchased BPS Bioscience 50005
T3 sequence (Q9UQL6 656-1122 limits assumed): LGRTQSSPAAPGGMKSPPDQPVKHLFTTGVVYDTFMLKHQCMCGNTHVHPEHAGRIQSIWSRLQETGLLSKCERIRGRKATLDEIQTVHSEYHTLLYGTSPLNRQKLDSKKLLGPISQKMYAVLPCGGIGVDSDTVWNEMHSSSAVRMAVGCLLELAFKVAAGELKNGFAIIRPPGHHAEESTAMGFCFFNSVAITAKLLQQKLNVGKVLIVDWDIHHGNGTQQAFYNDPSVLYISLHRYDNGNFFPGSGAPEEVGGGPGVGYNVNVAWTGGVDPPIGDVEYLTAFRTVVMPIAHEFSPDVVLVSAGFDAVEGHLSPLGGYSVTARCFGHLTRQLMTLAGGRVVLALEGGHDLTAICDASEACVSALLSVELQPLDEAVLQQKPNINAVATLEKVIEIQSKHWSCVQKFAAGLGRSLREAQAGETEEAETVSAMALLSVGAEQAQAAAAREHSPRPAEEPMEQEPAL
The assay can be described thus: HDAC5 enzyme inhibition (Lys-Ac-AMC). Conditions: Table 4, graded. The class given is biochemical. On the procedure:
as §1, §2

Assay [5] deals with acetylated histone H3 (Ac-H3) in A2780s cells. In words: Induction of histone H3 acetylation in A2780s cells (cytoblot). It counts as cell-based. Conditions: Homo sapiens, 6 h treatment. On the procedure:
Specific operation: After the treatment, washing each well once with 50-100 μl of cold TBS buffer [with the composition as 20 mM Tris (trismetyl aminomethane), pH7.5] and fixing it with 100 μL of 4% pre-cooled paraformaldehyde at 4° C. for 1 h; after paraformaldehyde is washed off, adding 50 μL of pre-cooled methyl alcohol in each well and evenly spreading at 4° C. for 5 min; after methyl alcohol is washed off, washing it once with the TBS buffer containing 3% skim milk powder and adding 50 μL of antibody fluid, oscillating it slightly at 4° C. and incubating overnight. For determination of Ac—H3, the antibody fluid is prepared by diluting Ac—H3 antibody and horseradish peroxide coupled secondary antibody to a same system with the TBS buffer containing 3% skim milk powder (Ac—H3 antibody is purchased from Santa Cruz Company and diluted at a ratio of 1:100; horseradish peroxide coupled secondary antibody is purchased from Jackson Company and diluted at a ratio of 1:2000); for determination of acetylated Ac-α-tubulin, the antibody fluid is prepared by diluting Ac-α-tubulin antibody and horseradish peroxide coupled secondary antibody to a same system with the TBS buffer containing 3% skim milk powder (Ac-α-tubulin antibody is purchased from Santa Cruz Company and diluted at a ratio of 1:100; horseradish peroxide coupled secondary antibody is purchased from Jackson Company and diluted at a ratio of 1:2000).
Calculating the value of IC50 as per the formula: Y=background data+(top data−background data)/(1+10^((Log EC50−X)*rate of curve)) Where, Y refers to the activating rate (%) and X refers to the compound concentration.

Another assay deals with T4, HDAC11 (Homo sapiens, UniProt Q96DB2).
T4 construct: purchased BPS Bioscience 50011
T4 sequence (Q96DB2 1-347): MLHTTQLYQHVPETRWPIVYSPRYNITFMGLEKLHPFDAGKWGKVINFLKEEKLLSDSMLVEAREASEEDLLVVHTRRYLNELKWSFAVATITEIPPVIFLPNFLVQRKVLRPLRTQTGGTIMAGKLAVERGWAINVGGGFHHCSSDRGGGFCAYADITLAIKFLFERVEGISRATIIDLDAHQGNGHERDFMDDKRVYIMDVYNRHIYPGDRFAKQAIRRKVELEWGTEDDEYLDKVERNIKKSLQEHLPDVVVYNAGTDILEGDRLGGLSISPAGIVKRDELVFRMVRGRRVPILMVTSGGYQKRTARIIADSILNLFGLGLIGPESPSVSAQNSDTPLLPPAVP
In words: HDAC11 enzyme inhibition (Lys-Ac-AMC). The class given is biochemical. The conditions noted are these: Table 4, graded. On the procedure: as §1, §2

The target of a further assay is T5, HDAC3 (Homo sapiens, UniProt O15379).
T5 construct: purchased BPS Bioscience 50003
T5 sequence (O15379 whole entry, species assumed): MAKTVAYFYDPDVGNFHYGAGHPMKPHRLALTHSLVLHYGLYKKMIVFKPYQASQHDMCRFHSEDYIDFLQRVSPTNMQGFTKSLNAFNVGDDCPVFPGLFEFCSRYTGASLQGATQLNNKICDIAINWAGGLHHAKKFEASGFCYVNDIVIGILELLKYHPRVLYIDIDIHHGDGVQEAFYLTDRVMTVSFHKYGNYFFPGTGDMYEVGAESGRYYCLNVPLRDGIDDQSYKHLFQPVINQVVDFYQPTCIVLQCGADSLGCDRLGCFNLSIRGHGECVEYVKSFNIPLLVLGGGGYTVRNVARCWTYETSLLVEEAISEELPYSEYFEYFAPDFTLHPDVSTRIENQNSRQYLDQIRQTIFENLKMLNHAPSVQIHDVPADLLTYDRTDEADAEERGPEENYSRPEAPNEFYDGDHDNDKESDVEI
T5 sequence (Q9Y618 395-489 partner limits assumed, species assumed): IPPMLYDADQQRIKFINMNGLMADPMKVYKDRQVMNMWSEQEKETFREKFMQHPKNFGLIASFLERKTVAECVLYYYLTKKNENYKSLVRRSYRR
The assay can be described thus: HDAC3 enzyme inhibition (Lys-Ac-AMC). The conditions noted are these: Table 4, graded. It counts as biochemical. As to the method:
as §1, §2

Setting [6] is: 96 h incubation, read-out: Proliferation IC50, Acute myeloid leukemia MV4-11.
The mark [7] stands for this setting: 96 h incubation, read-out: Proliferation IC50, Ovarian cancer A2780s.

Structures are written as SMILES. Read-outs that look alike come from different tables or passages of the source. Where only a bound is given, the exact number is not on record here.

One may read the EC50 as the concentration needed to bring the measured effect to its halfway point. Higher therefore signals a less potent agent.

T2 sequence (O00329 whole entry): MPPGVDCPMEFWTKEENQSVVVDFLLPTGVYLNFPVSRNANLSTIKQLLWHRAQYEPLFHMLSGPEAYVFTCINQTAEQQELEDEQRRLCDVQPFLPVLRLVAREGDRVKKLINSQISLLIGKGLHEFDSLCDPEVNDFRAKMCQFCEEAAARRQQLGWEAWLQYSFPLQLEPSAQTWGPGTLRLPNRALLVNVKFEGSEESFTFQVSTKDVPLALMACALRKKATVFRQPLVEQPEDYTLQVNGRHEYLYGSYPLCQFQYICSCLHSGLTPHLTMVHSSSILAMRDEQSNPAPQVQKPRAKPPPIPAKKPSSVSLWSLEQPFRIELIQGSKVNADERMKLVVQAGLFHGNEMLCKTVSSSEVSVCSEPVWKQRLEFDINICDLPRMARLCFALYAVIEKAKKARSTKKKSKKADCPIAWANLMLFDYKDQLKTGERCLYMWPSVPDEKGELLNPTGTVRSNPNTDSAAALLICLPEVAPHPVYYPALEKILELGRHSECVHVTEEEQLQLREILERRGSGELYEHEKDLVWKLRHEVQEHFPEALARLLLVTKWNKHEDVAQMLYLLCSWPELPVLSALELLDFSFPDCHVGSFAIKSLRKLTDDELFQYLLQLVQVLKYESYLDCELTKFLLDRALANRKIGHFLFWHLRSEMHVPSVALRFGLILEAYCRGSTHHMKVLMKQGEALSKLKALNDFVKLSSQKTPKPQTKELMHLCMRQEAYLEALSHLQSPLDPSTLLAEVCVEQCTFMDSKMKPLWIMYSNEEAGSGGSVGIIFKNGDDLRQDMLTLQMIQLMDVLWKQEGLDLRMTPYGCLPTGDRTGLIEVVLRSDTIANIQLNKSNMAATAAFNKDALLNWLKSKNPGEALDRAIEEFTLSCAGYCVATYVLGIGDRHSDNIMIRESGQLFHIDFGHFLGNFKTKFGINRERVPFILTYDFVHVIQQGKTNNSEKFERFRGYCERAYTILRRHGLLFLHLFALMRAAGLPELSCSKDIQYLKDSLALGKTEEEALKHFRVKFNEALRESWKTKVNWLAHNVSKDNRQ
T2 sequence (P27986 whole entry partner): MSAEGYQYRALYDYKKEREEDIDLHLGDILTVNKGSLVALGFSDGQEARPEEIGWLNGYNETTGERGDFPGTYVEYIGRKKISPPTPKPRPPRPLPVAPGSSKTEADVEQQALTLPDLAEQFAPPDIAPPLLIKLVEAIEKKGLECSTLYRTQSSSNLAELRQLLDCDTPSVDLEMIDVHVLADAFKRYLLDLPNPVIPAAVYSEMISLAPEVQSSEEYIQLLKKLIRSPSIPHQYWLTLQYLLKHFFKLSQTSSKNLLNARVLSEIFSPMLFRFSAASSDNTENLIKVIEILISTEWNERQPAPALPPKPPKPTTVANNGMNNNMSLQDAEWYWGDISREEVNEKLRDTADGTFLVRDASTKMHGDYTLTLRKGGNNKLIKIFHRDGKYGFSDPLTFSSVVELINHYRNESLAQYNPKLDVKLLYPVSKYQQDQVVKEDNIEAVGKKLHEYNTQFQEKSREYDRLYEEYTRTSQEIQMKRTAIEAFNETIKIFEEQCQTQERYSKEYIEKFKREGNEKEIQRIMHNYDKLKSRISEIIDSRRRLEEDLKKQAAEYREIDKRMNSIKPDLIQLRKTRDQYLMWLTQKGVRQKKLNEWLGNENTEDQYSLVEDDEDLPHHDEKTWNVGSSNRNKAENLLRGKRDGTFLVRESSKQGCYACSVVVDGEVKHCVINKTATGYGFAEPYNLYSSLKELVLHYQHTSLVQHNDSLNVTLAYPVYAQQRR
T1 sequence (P56524 627-1084 limits assumed): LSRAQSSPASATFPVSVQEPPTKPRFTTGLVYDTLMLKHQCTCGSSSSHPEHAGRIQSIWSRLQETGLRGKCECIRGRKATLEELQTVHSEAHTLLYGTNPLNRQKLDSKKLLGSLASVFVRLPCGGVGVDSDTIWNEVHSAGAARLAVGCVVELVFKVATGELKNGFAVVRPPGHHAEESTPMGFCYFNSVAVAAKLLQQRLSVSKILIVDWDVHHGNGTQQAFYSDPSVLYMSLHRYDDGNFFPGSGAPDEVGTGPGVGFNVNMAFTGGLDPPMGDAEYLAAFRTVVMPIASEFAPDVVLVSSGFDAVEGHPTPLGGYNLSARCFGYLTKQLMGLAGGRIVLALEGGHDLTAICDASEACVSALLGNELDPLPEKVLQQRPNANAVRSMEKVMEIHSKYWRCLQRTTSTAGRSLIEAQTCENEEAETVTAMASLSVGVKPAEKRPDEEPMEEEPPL

With `CN(Cc1nc2c(N3CCOCC3)nc(-c3cnc(N)nc3)nc2n1C)c1ncc(C(=O)NO)cn1` [CLJ-11, 2-(((2-(2-aminopyrimidine-5-yl)-9-methyl-6-morpholine-9H-purine-8-yl))methyl(methyl)amino)-N-hydroxyl pyrimidine-5-formamide], the IC50 lay in the range of 100 to 1000 nM at HDAC4; 10 to 100 nM in assay [1]; 10 to 100 nM in [2]; 100 to 1000 nM at PI3Kδ (Table 1, graded); 1 to 100 nM against PI3Kδ (Table 4, graded); 0.1 to 10 nM in assay [3] (setting [6]). For the same molecule, the IC50 lay in the range of 10 to 100 nM in [4] (setting [7]), 100 to 1000 nM on HDAC5, 1000 to 10000 nM at HDAC11 and 1 to 100 nM against HDAC3. This molecule also had an EC50 in [5] of 100 to 200 nM.

For `Cc1[nH]c2ccccc2c1CCNCc1ccc(/C=C/C(=O)NO)cc1` [LBH589, panobinostat, reference compound], the IC50 in assay [1] is 1 to 10 nM; in assay [2], 1 to 10 nM; against PI3Kδ (Table 4, graded), greater than 10000 nM; in assay [3] (setting [6]), 0.1 to 10 nM; in [4] (setting [7]), 0.1 to 10 nM. This molecule also returned an EC50 in assay [5] of 100 to 200 nM.

Take `CN(Cc1nc2c(N3CCOCC3)nc(-c3ccc(N)cc3)nc2n1C)c1ncc(C(=O)NO)cn1` [CLJ-44]: the IC50 was 1000 to 10000 nM against HDAC4; 1 to 10 nM in assay [1]; 1 to 10 nM in [2]; greater than 10000 nM against PI3Kδ (Table 4, graded); 0.1 to 10 nM in assay [3] (setting [6]); 0.1 to 10 nM in assay [4] (setting [7]). Moreover, the results for the IC50 on HDAC5, against HDAC11 and at HDAC3 were 100 to 1000 nM, 1000 to 10000 nM and 1 to 100 nM, respectively. Moreover, the concentration giving a half-maximal response (EC50) in assay [5] was in the range of 100 to 200 nM.

In the case of `COc1ccc(-c2nc(N3CCOCC3)c3nc(CN(C)c4ncc(C(=O)NO)cn4)n(C)c3n2)cn1` [CLJ-1, 2-(((2-(6-methoxypyridine-3-yl)-9-methyl-6-morpholine-9H-purine-8-yl))methyl(methyl)amino)-N-hydroxyl pyrimidine-5-formamide], the IC50 was 1000 to 10000 nM on HDAC4; 1 to 10 nM in [1]; 0.1 to 1 nM in assay [2]; 100 to 1000 nM on PI3Kδ (Table 1, graded); 100 to 1000 nM against PI3Kδ (Table 4, graded); 0.1 to 10 nM in assay [3] (setting [6]). The IC50 in [4] (setting [7]) lay in the range of 0.1 to 10 nM; at HDAC5, 1000 to 10000 nM; against HDAC11, 1000 to 10000 nM; against HDAC3 it was 1 to 100 nM. This molecule yielded an EC50 in assay [5] of 100 to 200 nM.

For the molecule `COc1ccc(-c2nc(N3CCOCC3)c3nc(CN(C)c4ncc(C(=O)NO)cn4)n(C)c3n2)cc1` [CLJ-29, 2-(((2-(4-methoxyphenyl)-9-methyl-6-morpholine-9H-purine-8-yl))methyl(methyl)amino)-N-hydroxyl pyrimidine-5-formamide], the IC50 on HDAC4 was 1000 to 10000 nM; in assay [1], 1 to 10 nM; in assay [2], 0.1 to 1 nM; at PI3Kδ (Table 4, graded), greater than 10000 nM; in assay [3] (setting [6]), 0.1 to 10 nM; in assay [3] (read-out: IC50 to proliferation of MV4-11 cells), 0.1 to 10 nM. Besides, the IC50 in assay [4] (setting [7]) fell in the range of 0.1 to 10 nM; in [4] (read-out: IC50 to proliferation of A2780s cells), 0.1 to 10 nM; against HDAC5 it was 1000 to 10000 nM; on HDAC11 it was 1000 to 10000 nM; at HDAC3 it was 1 to 100 nM. The EC50 in assay [5] was less than 100 nM.
